Source: US20150212068A1, “Cholyl-L-Lysyl-Fluorescein Assay” (Novassay SA, priority 2012, published 2015)
Entries after “also recorded” stand apart in the source; their conditions may differ.

Tests used:
[1] = Stability of CLF-spiked serum pools stored 48 hrs at −20° C., 4° C. and 37° C., CLF ELISA; format: in vitro ADME, human; settings: for % difference (4° C. from −20° C.) / % difference (37° C. from −20° C.) / observed 4° C. / observed 37° C. / observed −20° C.: serum pool; for observed 4° C.: 48 hrs at 4° C.; for observed 37° C.: 48 hrs at 37° C.; for observed −20° C.: 48 hrs at −20° C.
Experimental: These conditions were used for all assays described in Phase 2a (above) and Phase 2b (below). See Appendix B and C for buffer and conjugate formulations respectively: • Add 25 μl/well of sample or standard (0-1000 ng/ml CLF in Buffer #24) to the wells of a streptavidin-coated microtitre plate (NovAssay, F2SAC). • Add 100 μl/well of fluorescein-biotin (Sigma B9431) at 20 ng/ml in Buffer #24+0.2% w/v ANS (Sigma 10417). • Add 100 μl/well of anti-fluorescein HRP (NovAssay, DV047/17-3) at 100 ng/ml in Buffer #24. • Incubate the plate for 30 minutes at room temperature. • Wash the plate 3 times with 800 μl/well Buffer #29 and tap the plate dry. • Add 100 μl/well of SureBlue Reserve TMB Substrate (KPL) and incubate the plate for 10 minutes at room temperature. • Stop the substrate reaction by adding 100 μl/well of 1M HCl and read the absorbance at 450 nm wavelength (ThermoFisher Scientific, Multiskan FC).
The stability study (−20° C., 4° C. and 37° C.) involved preparation of 3 serum pools spiked with 31.25 ng/ml, 125 ng/ml and 250 ng/ml CLF (aliquots of which were then stored at the 3 temperatures). Storage time was 48 hrs.

[2] = Quantification of CLF in 5 human plasma samples by HPLC-MS/MS with calibration curves from SS CLF-MetOH and SS CLF-EtOH; format: physicochemical
Experimental: Two working solutions of CLF were prepared. […] Five human plasma samples, spiked with CLF from both working solutions, were prepared for HPLC-MS/MS analysis. These samples (named S1, S2, S3, S4 and S5) were thawed at room temperature, extemporaneously, and 100 μl of each were transferred in appropriate tubes. The HPLC-MS/MS analysis was conducted with two calibration curves, constituted with 7 single points (non zero). The first one was prepared by serial dilutions in methanol of the working solution named SS CLF-MetOH. The second one was prepared by serial dilutions in methanol of the working solution named SS CLF-EtOH. Both working solutions were centrifuged 5 min at 3000 g before dilutions. These dilutions of CLF in methanol allowed obtaining the 10× standard solutions used for standard sample preparation. Then, calibration curves were prepared by adding 10 μl of the concentrated standard solutions to 90 μl of free-drug human plasma. The final concentrations of calibrators were of 1000, 500, 250, 100, 25, 5 and 1 ng/ml. […] The contents of CLF were determined in 5 human plasma samples provided, according to the standard curve generated from both separate working solutions. […] The content of CLF was semi-quantified using data previously obtained. The UV response at 254 nm was used for semi-quantification. […] The differences between both quantifications were also evaluated as follows: […]

## CC(CCC(=O)NC(CCCCNC(=S)Nc1ccc(-c2c3ccc(=O)cc-3oc3cc(O)ccc23)c(C(=O)O)c1)C(=O)O)C1CCC2C3C(O)CC4CC(O)CCC4(C)C3CC(O)C12C [CLF, Cholyl-L-Lysyl-Fluorescein]
[1]; at 4 C., should avoid higher temperatures e.g. 37 C.
  time spiked samples can be stored: 48 hrs at 4 C. but should avoid higher
[1]; expected 31.25 ng/ml, 48 hrs
  % difference (4° C. from −20° C.): −8%
  % difference (37° C. from −20° C.): −45%
[1]; expected 31.25 ng/ml
  observed 4° C.: 34 ng/mL
  observed 37° C.: 20 ng/mL
  observed −20° C.: 37 ng/mL
[1]; expected 125 ng/ml, 48 hrs
  % difference (4° C. from −20° C.): −2%
  % difference (37° C. from −20° C.): −20%
[1]; expected 125 ng/ml
  observed 4° C.: 107 ng/mL
  observed 37° C.: 88 ng/mL
  observed −20° C.: 110 ng/mL
[1]; expected 250 ng/ml, 48 hrs
  % difference (4° C. from −20° C.): −12%
[1]; expected 250 ng/ml
  observed 4° C.: 211 ng/mL
  observed 37° C.: >off scale
  observed −20° C.: 240 ng/mL
[1]; serum pools spiked with CLF, 48 hrs, 4° C. vs 37° C. (reference −20° C.)
  storage stability of spiked samples: can be stored for 48 hrs at 4 °C but should avoid higher temperatures
[2]; EtOH:H2O:NaOH (50%) 500:1000:30, both immunoassay and HPLC methodologies
  quantitative value of CLF prepared in methanol (100%) relative to CLF prepared in aqueous ethanol (higher by): approximately 40%
[2]; isomeric form of SS CLF-EtOH not detected in standard samples in human plasma
  tautomerization of CLF: reversible and depends on the pH of the medium; also recorded: reversible and is dependent on the pH of the medium
